Laboratory results: the NIST ThermoML archive (doi:10.1021/acs.jced.8b00387)
Numbers after ± are expanded uncertainties.

Assay: xn = mol fraction of the nth substance listed
Conditions: for viscosity / mass density / speed of sound: 102 kPa, Liquid; for viscosity: Concentric cylinders viscometry; for mass density: Vibrating tube method; for speed of sound: Frequency=3 MHz, Single path-length method; for surface tension liquid-gas: 295 K, Pendant drop shape

CC(CC(C)(C)C)CC(C)(C)C [2,2,4,6,6-pentamethylheptane] + CCCCc1ccccc1
Conditions	mass density [kg/m3]	speed of sound [m/s]	viscosity [mPa·s]
253.15 K, x2 = 0.1001	782.1 ± 2	–	–
253.15 K, x2 = 0.1015	–	–	2.82 ± 0.06
253.15 K, x2 = 0.2	791.5 ± 2	–	–
253.15 K, x2 = 0.2005	–	–	2.63 ± 0.06
253.15 K, x2 = 0.2999	–	–	2.49 ± 0.06
253.15 K, x2 = 0.3001	801 ± 2	–	–
253.15 K, x2 = 0.4001	–	–	2.37 ± 0.06
253.15 K, x2 = 0.4006	811.2 ± 2	–	–
253.15 K, x2 = 0.4996	–	–	2.28 ± 0.06
253.15 K, x2 = 0.5	822.2 ± 2	–	–
253.15 K, x2 = 0.6	–	–	2.24 ± 0.06
253.15 K, x2 = 0.6002	834.1 ± 2	–	–
253.15 K, x2 = 0.6999	846.8 ± 2	–	2.2 ± 0.06
253.15 K, x2 = 0.8	–	–	2.19 ± 0.06
253.15 K, x2 = 0.8009	860 ± 2	–	–
253.15 K, x2 = 0.9	876.1 ± 2	–	2.21 ± 0.06
288.15 K, x2 = 0.1001	756.92 ± 0.73	1234.1 ± 1	–
288.15 K, x2 = 0.2	765.57 ± 0.72	1245.3 ± 1	–
288.15 K, x2 = 0.3001	774.88 ± 0.72	1257.1 ± 1	–
288.15 K, x2 = 0.4006	784.92 ± 0.72	1270 ± 0.9	–
288.15 K, x2 = 0.5	795.63 ± 0.72	1283.8 ± 0.9	–
288.15 K, x2 = 0.6002	807.34 ± 0.71	1298.7 ± 0.9	–
288.15 K, x2 = 0.6999	819.87 ± 0.71	1315 ± 0.8	–
288.15 K, x2 = 0.8009	833.77 ± 0.71	1332.9 ± 0.8	–
288.15 K, x2 = 0.9	848.29 ± 0.71	1352.1 ± 0.8	–
293.15 K, x2 = 0.1001	753.25 ± 0.73	1214.1 ± 1	–
293.15 K, x2 = 0.1015	–	–	1.24 ± 0.02
293.15 K, x2 = 0.2	761.88 ± 0.72	1225.4 ± 1	–
293.15 K, x2 = 0.2005	–	–	1.18 ± 0.02
293.15 K, x2 = 0.2999	–	–	1.13 ± 0.02
293.15 K, x2 = 0.3001	771.17 ± 0.72	1237.2 ± 1	–
293.15 K, x2 = 0.4001	–	–	1.08 ± 0.02
293.15 K, x2 = 0.4006	781.17 ± 0.72	1250 ± 0.9	–
293.15 K, x2 = 0.4996	–	–	1.05 ± 0.02
293.15 K, x2 = 0.5	791.85 ± 0.72	1263.8 ± 0.9	–
293.15 K, x2 = 0.6	–	–	1.02 ± 0.02
293.15 K, x2 = 0.6002	803.52 ± 0.71	1278.9 ± 0.9	–
293.15 K, x2 = 0.6999	816.01 ± 0.71	1295 ± 0.8	1.01 ± 0.02
293.15 K, x2 = 0.8	–	–	0.995 ± 0.021
293.15 K, x2 = 0.8009	829.8 ± 0.71	1312.9 ± 0.8	–
293.15 K, x2 = 0.9	844.33 ± 0.71	1332.1 ± 0.8	0.997 ± 0.021
303.15 K, x2 = 0.1001	745.91 ± 0.73	1175 ± 1	–
303.15 K, x2 = 0.1015	–	–	1.07 ± 0.02
303.15 K, x2 = 0.2	754.49 ± 0.72	1186.5 ± 1	–
303.15 K, x2 = 0.2005	–	–	1.03 ± 0.02
303.15 K, x2 = 0.2999	–	–	0.989 ± 0.021
303.15 K, x2 = 0.3001	763.72 ± 0.72	1198 ± 1	–
303.15 K, x2 = 0.4001	–	–	0.951 ± 0.021
303.15 K, x2 = 0.4006	773.66 ± 0.72	1210.8 ± 0.9	–
303.15 K, x2 = 0.4996	–	–	0.924 ± 0.021
303.15 K, x2 = 0.5	784.27 ± 0.72	1224.6 ± 0.9	–
303.15 K, x2 = 0.6	–	–	0.904 ± 0.021
303.15 K, x2 = 0.6002	795.86 ± 0.71	1240.1 ± 0.9	–
303.15 K, x2 = 0.6999	808.28 ± 0.71	1255.8 ± 0.8	0.887 ± 0.021
303.15 K, x2 = 0.8	–	–	0.874 ± 0.021
303.15 K, x2 = 0.8009	821.96 ± 0.71	1274.1 ± 0.8	–
303.15 K, x2 = 0.9	836.41 ± 0.71	1292.8 ± 0.8	0.874 ± 0.021
313.15 K, x2 = 0.1001	738.55 ± 0.73	1136.7 ± 1	–
313.15 K, x2 = 0.1015	–	–	0.92 ± 0.02
313.15 K, x2 = 0.2	747.07 ± 0.72	1148.4 ± 1	–
313.15 K, x2 = 0.2005	–	–	0.89 ± 0.021
313.15 K, x2 = 0.2999	–	–	0.862 ± 0.021
313.15 K, x2 = 0.3001	756.25 ± 0.72	1159.8 ± 1	–
313.15 K, x2 = 0.4001	–	–	0.837 ± 0.021
313.15 K, x2 = 0.4006	766.12 ± 0.72	1172.6 ± 0.9	–
313.15 K, x2 = 0.4996	–	–	0.814 ± 0.021
313.15 K, x2 = 0.5	776.66 ± 0.72	1186.3 ± 0.9	–
313.15 K, x2 = 0.6	–	–	0.798 ± 0.021
313.15 K, x2 = 0.6002	788.17 ± 0.71	1201.9 ± 0.9	–
313.15 K, x2 = 0.6999	800.51 ± 0.71	1217.5 ± 0.8	0.781 ± 0.021
313.15 K, x2 = 0.8	–	–	0.77 ± 0.021
313.15 K, x2 = 0.8009	814.1 ± 0.71	1235.9 ± 0.8	–
313.15 K, x2 = 0.9	828.46 ± 0.71	1254.4 ± 0.8	0.77 ± 0.021
323.15 K, x2 = 0.1001	731.16 ± 0.73	1099.4 ± 1	–
323.15 K, x2 = 0.1015	–	–	0.813 ± 0.021
323.15 K, x2 = 0.2	739.61 ± 0.72	1111 ± 1	–
323.15 K, x2 = 0.2005	–	–	0.784 ± 0.021
323.15 K, x2 = 0.2999	–	–	0.762 ± 0.021
323.15 K, x2 = 0.3001	748.74 ± 0.72	1122.4 ± 1	–
323.15 K, x2 = 0.4001	–	–	0.735 ± 0.021
323.15 K, x2 = 0.4006	758.55 ± 0.72	1135.1 ± 0.9	–
323.15 K, x2 = 0.4996	–	–	0.718 ± 0.021
323.15 K, x2 = 0.5	769.02 ± 0.72	1148.8 ± 0.9	–
323.15 K, x2 = 0.6	–	–	0.703 ± 0.021
323.15 K, x2 = 0.6002	780.45 ± 0.72	1164.4 ± 0.9	–
323.15 K, x2 = 0.6999	792.72 ± 0.71	1179.9 ± 0.8	0.692 ± 0.021
323.15 K, x2 = 0.8	–	–	0.682 ± 0.021
323.15 K, x2 = 0.8009	806.2 ± 0.71	1198.3 ± 0.8	–
323.15 K, x2 = 0.9	820.47 ± 0.71	1216.8 ± 0.8	0.683 ± 0.021
333.15 K, x2 = 0.1001	723.71 ± 0.73	1063 ± 1	–
333.15 K, x2 = 0.1015	–	–	0.715 ± 0.021
333.15 K, x2 = 0.2	732.11 ± 0.72	1074.5 ± 1	–
333.15 K, x2 = 0.2005	–	–	0.692 ± 0.021
333.15 K, x2 = 0.2999	–	–	0.675 ± 0.021
333.15 K, x2 = 0.3001	741.19 ± 0.72	1086.1 ± 1	–
333.15 K, x2 = 0.4001	–	–	0.653 ± 0.021
333.15 K, x2 = 0.4006	750.94 ± 0.72	1098.7 ± 0.9	–
333.15 K, x2 = 0.4996	–	–	0.636 ± 0.021
333.15 K, x2 = 0.5	761.34 ± 0.72	1112.3 ± 0.9	–
333.15 K, x2 = 0.6	–	–	0.627 ± 0.021
333.15 K, x2 = 0.6002	772.69 ± 0.72	1127.7 ± 0.9	–
333.15 K, x2 = 0.6999	784.88 ± 0.71	1143.2 ± 0.8	0.617 ± 0.021
333.15 K, x2 = 0.8	–	–	0.61 ± 0.021
333.15 K, x2 = 0.8009	798.16 ± 0.71	1161.4 ± 0.8	–
333.15 K, x2 = 0.9	812.44 ± 0.71	1180 ± 0.8	0.611 ± 0.021

Conditions	surface tension liquid-gas [mN/m]
x2 = 0.1001	22 ± 0.3
x2 = 0.2	22.2 ± 0.3
x2 = 0.3001	22.7 ± 0.3
x2 = 0.4006	23.1 ± 0.3
x2 = 0.5	23.5 ± 0.3
x2 = 0.6002	24 ± 0.3
x2 = 0.6999	24.8 ± 0.3
x2 = 0.8009	25.7 ± 0.3
x2 = 0.8985	26.7 ± 0.3
